# Paper PMC8041284, “Tunable Methacrylamides for Covalent Ligand Directed Release Chemistry” (Journal of the American Chemical Society, 2021)
# Like-named read-outs stand apart in the source and are kept apart here.
# Target: BTK (Homo sapiens, UniProt Q06187)
# Assay: biochemical
# [1] = read-out: BTK inhibition (%), 0.75 uM BTK, […] probe 3l, 15 min preincubation
# Chain of BTK (Q06187 402-655 limits assumed): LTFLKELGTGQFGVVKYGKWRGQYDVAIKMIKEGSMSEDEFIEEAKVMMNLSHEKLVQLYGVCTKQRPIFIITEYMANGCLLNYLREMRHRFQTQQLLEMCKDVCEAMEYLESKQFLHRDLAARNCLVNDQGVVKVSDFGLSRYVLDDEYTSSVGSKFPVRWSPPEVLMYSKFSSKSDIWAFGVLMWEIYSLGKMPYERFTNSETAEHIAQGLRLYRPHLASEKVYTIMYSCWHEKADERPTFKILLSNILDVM
inhibition at 10 µM [1],SMILES,inhibition at 10 µM (read-out: BTK inhibition (%))
-7%,Cc1ccsc1C(=CCCN1CCC[C@@H](C(=O)O)C1)c1sccc1C [PCM-0214833],–
-2.1%,CCOc1ccc(Cc2cc([C@@H]3O[C@H](CO)[C@@H](O)[C@H](O)[C@H]3O)ccc2Cl)cc1 [PCM-0095107],–
13.2%,Cn1nnc(-c2ccc(-c3ccc(N4C[C@H](COP(=O)(O)O)OC4=O)cc3F)cn2)n1 [PCM-0214830],–
-18.6%,COc1ncc(-c2ccc3nccc(-c4ccnnc4)c3c2)cc1NS(=O)(=O)c1ccc(F)cc1F [PCM-0095528],–
52.4%,O=C1Nc2ccc(I)cc2/C1=C/c1cc(Br)c(O)c(Br)c1 [PCM-0095540],–
-1.7%,C[C@@H]1O[C@@H](O[C@H]2[C@H](Oc3c(-c4ccc(O)cc4)oc4cc(O)cc(O)c4c3=O)O[C@H](CO)[C@@H](O)[C@@H]2O)[C@H](O)[C@H](O)[C@H]1O [PCM-0216179],–
16.6%,OCCn1cc(-c2ccc3c(c2)CC/C3=N\O)c(-c2ccncc2)n1 [PCM-0094883],–
-6.2%,CC(C)(Oc1ccc(Cl)cc1)C(=O)OCCOC(=O)c1cccnc1 [PCM-0214787],–
10.8%,CC(=O)OCC1=C[C@@H]2OC(=O)C3=CO[C@@H](O[C@@H]4O[C@H](CO)[C@@H](O)[C@H](O)[C@H]4O)[C@H]1[C@@H]32 [PCM-0216352],–
–,CC1(C)C(=O)N(c2ccc(C#N)c(C(F)(F)F)c2)C(=O)N1CCCCO [PCM-0216095],11.6%
1.5%,COc1ccc(OC)c(C2C(C#N)=C(N)Oc3n[nH]c(-c4ccc5ccccc5c4)c32)c1 (stereo not drawn) [PCM-0215398],–
117%,CN(C)C/C=C/C(=O)Nc1ccc(C(=O)Nc2cccc(Nc3ncc(Cl)c(-c4c[nH]c5ccccc45)n3)c2)cc1 [PCM-0213464],–
-17.1%,CC(C)C[C@H](NC(=O)[C@H](CCc1ccccc1)NC(=O)CN1CCOCC1)C(=O)N[C@@H](Cc1ccccc1)C(=O)N[C@@H](CC(C)C)C(=O)[C@@]1(C)CO1 [PCM-0095475],–
82.8%,Cc1cccc(Nc2nc(N[C@@H]3CCCC[C@@H]3N)ncc2C(N)=O)c1 [PCM-0215814],–
10.8%,CN(C)C(=O)CCSC(SCCC(=O)O)c1cccc(/C=C/c2ccc3ccc(Cl)cc3n2)c1 (stereo not drawn) [PCM-0215726],–
–,CC(C(=O)O)C(=O)O [PCM-0214910],-6.2%
-4.7%,CCS(=O)(=O)CCn1c([N+](=O)[O-])cnc1C [PCM-0086486],–
-10.2%,CN[C@@H]1[C@H](O[C@H]2[C@H](O[C@H]3[C@H](O)[C@@H](O)[C@H](N=C(N)N)[C@@H](O)[C@@H]3N=C(N)N)O[C@@H](C)[C@]2(O)C=O)O[C@@H](CO)[C@H](O)[C@H]1O [PCM-0215192],–
-11.7%,Cc1c(C(=O)Nc2ccc(N3CCC(N4CCOCC4)CC3)c(C#N)c2)cnn1-c1ccc(Cl)cc1 [PCM-0215293],–
10.8%,COc1ccc2c(c1)c(CC(=O)O)c(C)n2C(=O)c1ccc(Cl)cc1 [PCM-0216635],–
8.5%,CNc1cccc(CCOc2ccc3c(c2)CN(CC(F)(F)F)C(=O)[C@H](CC(=O)O)C3)n1 [PCM-0215443],–
-64.9%,CCCCCCCC/C=C\CCCCCCCCCCCC(=O)O [PCM-0216153],–
-11.7%,C=C1CC[C@H]2O[C@]2(C)CC[C@@H]2[C@@H]1CC2(C)C [PCM-0214945],–
53.3%,Cc1cnc(C(=O)N[C@H]2CCCCC/C=C\[C@@H]3C[C@@]3(C(=O)NS(=O)(=O)C3CC3)NC(=O)[C@@H]3C[C@@H](Oc4nc5ccccc5c5ccccc45)CN3C2=O)cn1 [PCM-0216057],–
-4.6%,Cc1ccc(S(=O)(=O)Cc2nc(-c3ccc(C(=O)NCc4cccnc4)cc3)oc2C)cc1 [PCM-0215271],–
6.2%,O=C(O)c1c[nH]c2ccccc12 [PCM-0215132],–

inhibition at 10 µM [1],SMILES,inhibition at 10 µM (read-out: BTK inhibition (%))
3.9%,COc1ccc(-c2oc3c(CC=C(C)C)c(O)cc(O)c3c(=O)c2O)cc1 [PCM-0216376],–
53.8%,CCCCCCCCCCCCc1ccc(S(=O)(=O)Nc2nncs2)cc1 [PCM-0095111],–
5.4%,O=S(=O)(NCCSSCCNS(=O)(=O)c1cc(Cl)ccc1Cl)c1cc(Cl)ccc1Cl [PCM-0215542],–
6.9%,Cc1ccc(CNc2ncnc3ccc(-c4ccc(CO)o4)cc23)o1 [PCM-0215296],–
–,C=C1CC[C@H]2[C@@H](/C=C(\C)C(=O)[C@@]3(OC(C)=O)C[C@H](C)[C@H](OC(=O)c4ccccc4)[C@@H]3[C@H]1OC(C)=O)C2(C)C [PCM-0216520],-20.1%
19.5%,Clc1ccc(C(c2ccccc2Cl)C(Cl)Cl)cc1 (stereo not drawn) [PCM-0064460],–
48.3%,O=C(O)c1cc(N=Nc2ccc(S(=O)(=O)Nc3ccccn3)cc2)ccc1O [PCM-0214740],–
-4.6%,Nc1nc(NCCc2ccc(O)cc2)nc2nc(-c3ccco3)nn12 [PCM-0215654],–
49.8%,CC(C)(C)c1cc(C(C)(C)C)c(NC(=O)c2c[nH]c3ccccc3c2=O)cc1O [PCM-0094963],–
-20.8%,CC1=CC[C@@H](C(C)(C)O)CC1 [PCM-0216214],–
73.4%,O=[N+]([O-])c1ccc(Sc2cccc[n+]2[O-])c2nonc12 [PCM-0215705],–
67.7%,O=c1c(O)c(-c2ccc(O)cc2)oc2cc(O)cc(O)c12 [PCM-0087037],–
88.3%,C=CC(=O)Nc1ccc(CN2C(=O)N(c3cc(OC)cc(OC)c3)Cc3cnc(Nc4ccc(N5CCN(C)CC5)cc4)nc32)cc1 [PCM-0215559],–
6.2%,c1ccc2occc2c1 [PCM-0216211],–
-3.4%,Cc1[nH]cnc1CN1CCc2c(c3ccccc3n2C)C1=O [PCM-0215666],–
-1.4%,O=c1nc(N2CCOCC2)oc2c(-c3cccc4c3sc3ccccc34)cccc12 [PCM-0215826],–
11.7%,O=C(/C=C/c1ccc2ccccc2n1)c1ccncc1 [PCM-0215310],–
-0.8%,O=C(NCCN1CCOCC1)Nc1ccc(C(=O)/C=C/c2cccc(N3CCOCC3)n2)cc1 [PCM-0215849],–
-11.7%,CC(C)(Cc1ccc2ccccc2c1)NC[C@@H](O)COc1cccc(Cl)c1C#N [PCM-0095749],–
9.3%,NC(=O)[C@@H](CCC(F)(F)F)N(Cc1ccc(-c2ncon2)cc1F)S(=O)(=O)c1ccc(Cl)cc1 [PCM-0214565],–
-3.4%,O=C(O)CCC(=O)Nc1ccc(Br)cn1 [PCM-0215427],–
-10.8%,CC1(C)CC[C@]2(C(=O)O)[C@H](O)C[C@]3(C)C(=CC[C@@H]4[C@@]5(C)C[C@H](O)[C@H](O)[C@@](C)(CO)[C@@H]5CC[C@]43C)[C@@H]2C1 [PCM-0216296],–
-2.3%,NCCCCCC(=O)O [PCM-0064402],–
27%,N=C1S/C(=C\c2ccc(-c3ccc4c(c3)C(=O)NC4=O)o2)C(=O)N1c1ccc(Br)cc1 [PCM-0215801],–
34.2%,Cn1cc(/C=C/C(=O)c2cccc(F)c2)cc1/C=C/C(=O)NO [PCM-0095164],–
-13.9%,O=c1cc(-c2ccc(O)cc2)oc2c([C@@H]3OC[C@H](O)[C@H](O)[C@H]3O)c(O)c([C@@H]3O[C@H](CO)[C@@H](O)[C@H](O)[C@H]3O)c(O)c12 [PCM-0216486],–

SMILES,inhibition at 10 µM [1],inhibition at 10 µM (read-out: BTK inhibition (%))
C/C(O)=C(\C#N)C(=O)Nc1cc(Br)ccc1Br [PCM-0215429],-1.4%,–
CC(C)CCC[C@@H](C)[C@H]1CC[C@H]2C3=CC=C4C[C@@H](O)CC[C@]4(C)[C@H]3CC[C@]12C [PCM-0216561],18.5%,–
